Where two headings read alike, the source gives them in different places.
How the values were obtained:
[1] = molecular target: T1, SpyB (synthetic SpyB peptide); assay: tryptophan fluorescence quenching; assay type: binding, Streptococcus pyogenes; settings: 5 μM SpyB, 20 mM HEPES, 100 mM NaCl, 1 mM DTT, pH 7.5, 20°C
T1 construct: chemically synthesized SpyB peptide (GenScript); SpyB is 35 residues; no tag mentioned
Description: tryptophan fluorescence quenching on SpyB (synthetic SpyB peptide)

[2] = molecular target: MBP-SpyB; settings: read-out: Hemin, KD; 2.5 μM (Figure 5D; Methods: 5 μM) heme-free monomer, 20 mM HEPES, 100 mM NaCl, 1 mM DTT, pH 7.5, 20°C

Row | SMILES | Kd ([1]; read-out: Hemin, KD) [µM] | Kd [2] [µM] | Kd ([1]; read-out: Protoporphyrin IX, KD) [µM]
1 | C=CC1=C(C)C2=Cc3c(C=C)c(C)c4[n]3[Fe]([Cl])[n]3c(c(C)c(CCC(=O)O)c3=CC3=NC(=C4)C(C)=C3CCC(=O)O)=CC1=N2 [hemin] | 2.6 | 12 | –
2 | C=CC1=C(C)c2cc3[nH]c(cc4nc(cc5[nH]c(cc1n2)c(C)c5CCC(=O)O)C(CCC(=O)O)=C4C)c(C)c3C=C [protoporphyrin IX] | – | – | 4.9

— paper PMC5061733, “SpyB, a Small Heme-Binding Protein, Affects the Composition of the Cell Wall in Streptococcus pyogenes” (Frontiers in Cellular and Infection Microbiology, 2016)
